According to patent US20150087627A1, “COMBINATION OF KINASE INHIBITORS AND USES THEREOF” (Intellikine LLC, priority 2011, published 2015):
pIC50: −log10 of the molar value.

Tests used:
Type in all cases: biochemical
[1] = target: T1, PI3K γ (p110γ) (Homo sapiens, UniProt P48736); test: PI 3-Kinase (human) HTRF assay, PI3K γ; settings: read-out: PI3K γ IC50
T1 construct: purchased Upstate / Millipore Corporation

[2] = target: T2, PI3K δ (Homo sapiens, UniProt O00329); test: PI 3-Kinase (human) HTRF assay, PI3K δ; settings: read-out: PI3K δ IC50
T2 construct: purchased Upstate / Millipore Corporation
T2 sequence (O00329 whole entry): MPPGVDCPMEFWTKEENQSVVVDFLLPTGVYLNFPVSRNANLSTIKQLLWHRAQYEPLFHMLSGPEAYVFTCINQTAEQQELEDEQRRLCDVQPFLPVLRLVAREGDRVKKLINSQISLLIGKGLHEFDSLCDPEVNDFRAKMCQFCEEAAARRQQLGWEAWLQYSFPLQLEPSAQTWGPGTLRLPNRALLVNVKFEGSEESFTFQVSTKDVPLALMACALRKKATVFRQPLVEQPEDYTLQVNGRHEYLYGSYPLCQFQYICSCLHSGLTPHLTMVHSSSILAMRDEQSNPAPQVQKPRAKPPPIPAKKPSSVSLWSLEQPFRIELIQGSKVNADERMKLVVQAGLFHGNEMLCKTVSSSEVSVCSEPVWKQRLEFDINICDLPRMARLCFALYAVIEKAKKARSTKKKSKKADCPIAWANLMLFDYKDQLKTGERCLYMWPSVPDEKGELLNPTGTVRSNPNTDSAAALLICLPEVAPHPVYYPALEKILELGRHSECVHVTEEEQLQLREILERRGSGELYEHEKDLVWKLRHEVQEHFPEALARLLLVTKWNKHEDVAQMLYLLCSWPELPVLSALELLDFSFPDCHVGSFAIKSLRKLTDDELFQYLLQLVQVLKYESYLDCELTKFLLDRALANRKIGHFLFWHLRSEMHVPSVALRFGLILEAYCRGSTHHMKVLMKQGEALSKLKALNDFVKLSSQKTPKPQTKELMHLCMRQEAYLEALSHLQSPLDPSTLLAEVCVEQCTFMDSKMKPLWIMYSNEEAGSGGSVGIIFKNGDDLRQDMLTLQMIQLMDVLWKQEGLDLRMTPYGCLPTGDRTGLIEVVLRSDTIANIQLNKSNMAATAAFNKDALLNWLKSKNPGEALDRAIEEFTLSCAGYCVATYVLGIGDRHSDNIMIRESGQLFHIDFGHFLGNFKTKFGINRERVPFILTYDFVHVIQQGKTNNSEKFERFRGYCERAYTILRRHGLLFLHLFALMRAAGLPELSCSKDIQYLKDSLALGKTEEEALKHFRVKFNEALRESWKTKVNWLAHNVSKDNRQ
T2 sequence (P27986 whole entry partner): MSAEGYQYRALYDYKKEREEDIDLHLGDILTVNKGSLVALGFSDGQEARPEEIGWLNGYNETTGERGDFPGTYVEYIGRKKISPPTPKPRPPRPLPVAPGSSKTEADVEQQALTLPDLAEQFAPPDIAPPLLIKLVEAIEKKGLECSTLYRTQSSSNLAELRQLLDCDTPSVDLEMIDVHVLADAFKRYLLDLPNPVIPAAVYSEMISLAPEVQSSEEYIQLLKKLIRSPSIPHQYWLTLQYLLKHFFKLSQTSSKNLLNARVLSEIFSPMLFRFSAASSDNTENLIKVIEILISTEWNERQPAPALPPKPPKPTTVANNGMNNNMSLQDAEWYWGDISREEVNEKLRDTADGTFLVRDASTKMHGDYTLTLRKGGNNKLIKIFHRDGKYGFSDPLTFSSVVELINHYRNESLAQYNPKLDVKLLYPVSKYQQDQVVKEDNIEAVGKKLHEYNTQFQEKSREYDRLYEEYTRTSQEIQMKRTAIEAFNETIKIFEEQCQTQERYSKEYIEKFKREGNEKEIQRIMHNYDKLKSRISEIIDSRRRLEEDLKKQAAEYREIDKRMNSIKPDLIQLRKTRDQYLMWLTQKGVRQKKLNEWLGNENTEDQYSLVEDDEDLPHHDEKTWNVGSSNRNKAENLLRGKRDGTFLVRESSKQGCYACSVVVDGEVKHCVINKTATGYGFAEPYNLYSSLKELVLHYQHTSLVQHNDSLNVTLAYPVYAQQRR

[3] = target: T3, PI3K β (p110β/p85α) (Homo sapiens, UniProt P42338); test: PI 3-Kinase (human) HTRF assay, PI3K β; settings: read-out: PI3K β IC50
T3 construct: purchased Upstate / Millipore Corporation
T3 sequence (P42338 whole entry): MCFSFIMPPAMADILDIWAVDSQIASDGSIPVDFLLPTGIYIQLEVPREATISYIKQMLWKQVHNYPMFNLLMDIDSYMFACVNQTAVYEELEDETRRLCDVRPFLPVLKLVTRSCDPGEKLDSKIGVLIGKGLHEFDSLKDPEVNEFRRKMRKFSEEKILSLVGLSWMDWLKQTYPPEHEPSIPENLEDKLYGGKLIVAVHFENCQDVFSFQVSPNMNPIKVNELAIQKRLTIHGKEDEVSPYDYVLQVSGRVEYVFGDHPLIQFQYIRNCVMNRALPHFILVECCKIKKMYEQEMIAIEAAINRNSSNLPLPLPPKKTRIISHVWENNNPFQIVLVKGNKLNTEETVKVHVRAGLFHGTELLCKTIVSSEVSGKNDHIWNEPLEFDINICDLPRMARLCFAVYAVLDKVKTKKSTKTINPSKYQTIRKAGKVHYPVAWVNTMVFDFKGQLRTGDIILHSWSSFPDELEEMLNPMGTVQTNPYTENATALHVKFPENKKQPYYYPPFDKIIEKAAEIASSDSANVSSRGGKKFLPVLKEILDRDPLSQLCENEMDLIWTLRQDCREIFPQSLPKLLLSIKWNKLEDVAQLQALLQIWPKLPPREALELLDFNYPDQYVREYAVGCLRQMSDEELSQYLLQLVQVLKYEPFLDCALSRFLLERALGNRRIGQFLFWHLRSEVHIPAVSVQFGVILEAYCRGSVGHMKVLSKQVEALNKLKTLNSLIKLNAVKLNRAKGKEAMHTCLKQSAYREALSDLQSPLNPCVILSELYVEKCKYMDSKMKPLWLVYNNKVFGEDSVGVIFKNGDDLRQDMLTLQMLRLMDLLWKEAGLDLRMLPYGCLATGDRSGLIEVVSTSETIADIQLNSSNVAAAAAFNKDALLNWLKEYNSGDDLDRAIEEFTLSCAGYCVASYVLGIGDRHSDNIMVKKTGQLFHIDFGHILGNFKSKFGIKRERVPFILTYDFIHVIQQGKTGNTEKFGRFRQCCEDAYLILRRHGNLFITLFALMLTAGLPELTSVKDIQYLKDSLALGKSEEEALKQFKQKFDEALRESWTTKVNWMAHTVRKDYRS
T3 sequence (P27986 whole entry partner): as the sequence (P27986 whole entry partner) above

[4] = target: T4, PI3K α (p110α/p85α) (Homo sapiens, UniProt P42336); test: PI 3-Kinase (human) HTRF assay, PI3K α; settings: read-out: PI3K α IC50
T4 construct: purchased Upstate / Millipore Corporation
T4 sequence (P42336 whole entry): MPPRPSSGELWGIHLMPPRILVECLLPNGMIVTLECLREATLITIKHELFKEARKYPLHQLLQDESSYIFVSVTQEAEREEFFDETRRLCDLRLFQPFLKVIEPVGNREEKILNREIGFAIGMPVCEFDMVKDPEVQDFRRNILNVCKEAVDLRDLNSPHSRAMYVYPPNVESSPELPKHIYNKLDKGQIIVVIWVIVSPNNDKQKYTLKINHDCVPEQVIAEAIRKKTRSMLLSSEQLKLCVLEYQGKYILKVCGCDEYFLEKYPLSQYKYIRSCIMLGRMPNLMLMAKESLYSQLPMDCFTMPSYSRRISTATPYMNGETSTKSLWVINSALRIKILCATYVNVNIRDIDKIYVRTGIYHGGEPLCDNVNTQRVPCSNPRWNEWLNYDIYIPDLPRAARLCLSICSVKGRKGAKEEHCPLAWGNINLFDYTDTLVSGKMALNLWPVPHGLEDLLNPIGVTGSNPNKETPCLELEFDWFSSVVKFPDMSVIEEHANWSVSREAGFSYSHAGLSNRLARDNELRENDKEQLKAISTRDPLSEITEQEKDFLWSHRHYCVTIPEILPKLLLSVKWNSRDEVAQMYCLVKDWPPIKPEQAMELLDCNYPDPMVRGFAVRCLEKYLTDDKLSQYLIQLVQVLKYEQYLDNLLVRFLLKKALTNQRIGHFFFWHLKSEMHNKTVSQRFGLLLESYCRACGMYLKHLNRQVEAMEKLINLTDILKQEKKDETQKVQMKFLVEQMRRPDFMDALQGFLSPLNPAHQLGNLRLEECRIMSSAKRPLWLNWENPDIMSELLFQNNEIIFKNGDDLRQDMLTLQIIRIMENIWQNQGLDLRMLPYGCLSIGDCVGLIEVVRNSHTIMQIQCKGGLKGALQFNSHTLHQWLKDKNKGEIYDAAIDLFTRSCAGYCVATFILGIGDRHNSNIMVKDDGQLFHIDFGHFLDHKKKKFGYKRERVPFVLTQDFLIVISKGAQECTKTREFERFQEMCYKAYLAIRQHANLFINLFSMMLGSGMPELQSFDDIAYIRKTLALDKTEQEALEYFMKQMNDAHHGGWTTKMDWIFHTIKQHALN
T4 sequence (P27986 whole entry partner): as the sequence (P27986 whole entry partner) above

T1 sequence (P48736 whole entry): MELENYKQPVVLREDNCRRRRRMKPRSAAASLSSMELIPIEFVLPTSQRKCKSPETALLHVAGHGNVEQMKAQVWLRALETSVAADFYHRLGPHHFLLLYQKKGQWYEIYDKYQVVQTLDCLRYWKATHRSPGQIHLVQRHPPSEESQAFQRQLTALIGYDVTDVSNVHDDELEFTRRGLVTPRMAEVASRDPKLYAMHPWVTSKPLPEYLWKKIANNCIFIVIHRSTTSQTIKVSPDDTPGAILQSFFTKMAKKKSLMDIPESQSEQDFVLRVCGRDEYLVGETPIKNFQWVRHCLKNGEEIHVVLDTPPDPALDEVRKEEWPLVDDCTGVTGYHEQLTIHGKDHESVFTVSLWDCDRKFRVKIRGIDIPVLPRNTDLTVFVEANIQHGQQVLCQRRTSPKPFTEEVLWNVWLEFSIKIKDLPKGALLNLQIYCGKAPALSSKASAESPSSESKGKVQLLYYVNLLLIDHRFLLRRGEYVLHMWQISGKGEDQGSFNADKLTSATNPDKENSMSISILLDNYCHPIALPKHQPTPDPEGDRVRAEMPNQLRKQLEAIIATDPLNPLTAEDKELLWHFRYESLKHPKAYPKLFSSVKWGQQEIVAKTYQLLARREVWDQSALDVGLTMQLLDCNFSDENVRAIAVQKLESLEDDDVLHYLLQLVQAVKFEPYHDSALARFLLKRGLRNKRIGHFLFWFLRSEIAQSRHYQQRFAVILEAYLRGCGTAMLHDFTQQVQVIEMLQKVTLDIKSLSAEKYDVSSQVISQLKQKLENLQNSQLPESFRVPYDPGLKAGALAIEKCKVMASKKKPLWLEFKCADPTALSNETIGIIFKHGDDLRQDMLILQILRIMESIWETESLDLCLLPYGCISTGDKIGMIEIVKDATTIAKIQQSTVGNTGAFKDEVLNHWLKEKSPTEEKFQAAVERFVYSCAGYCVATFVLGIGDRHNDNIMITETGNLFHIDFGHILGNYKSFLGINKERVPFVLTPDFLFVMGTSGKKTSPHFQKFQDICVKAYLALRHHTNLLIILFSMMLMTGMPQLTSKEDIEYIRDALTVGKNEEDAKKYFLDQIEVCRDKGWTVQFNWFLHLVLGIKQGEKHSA

pIC50 [1]	pIC50 [2]	pIC50 [3]	pIC50 [4]	Compound
> 6.00	> 7.00	> 6.00	> 7.00	Nc1nc2cc(-c3ccc4ncc(NCCCN5CCOCC5)nc4c3)ccc2o1 [Compound 222]
> 6.00	< 5.00	< 5.00	> 7.00	Cc1ccn(C2CCN(c3cnc4ccc(-c5ccc6oc(N)nc6c5)cc4n3)CC2)n1 [Compound 223]
< 5.00	< 5.00	< 5.00	> 5.00	CCN(CC)CCn1cnc2ccc(-c3ccc4oc(N)nc4c3)cc2c1=O [Compound 224]
> 5.00	> 5.00	< 5.00	> 6.00	Nc1nc2cc(-c3ccc4ncc(N5CCN(C(=O)C6(N)CC6)CC5)nc4c3)ccc2o1 [Compound 226]
> 6.00	> 5.00	> 6.00	> 5.00	Nc1nc2ccc(-c3ccc4nnc(-c5ccncc5)n4c3)cc2o1 [Compound 230]
> 7.00	< 5.00	> 7.00	> 7.00	CC(=O)Nc1nc2ccc(-c3ccc4nc(N)oc4c3)cc2s1 [Compound 242]
> 7.00	< 5.00	> 7.00	> 6.00	Nc1nc2ccc(-c3ccc4nc(N)sc4c3)cc2o1 [Compound 243]
< 5.00	< 5.00	< 5.00	< 5.00	Nc1nc2ccc(-c3ccc4nc(N)oc4c3)cc2o1 [Compound 246]
> 5.00	< 5.00	> 5.00	< 5.00	Nc1cn2cc(-c3ccc4nc(N)oc4c3)ccc2n1 [Compound 247]
> 6.00	> 5.00	> 6.00	> 5.00	Nc1nc2cc(-c3ccc4sc(N)nc4c3)ccc2o1 [Compound 248]
> 7.00	> 6.00	> 7.00	> 7.00	Nc1nc2ccc(-c3ccc4sc(N)nc4c3)cc2o1 [Compound 249]
> 5.00	> 5.00	> 5.00	> 5.00	Nc1nc2cc(-c3ccc4ncn(CCN5CCCC5)c(=O)c4c3)ccc2o1 [Compound 255]
< 5.00	< 5.00	< 5.00	> 5.00	Nc1nc2cc(-c3ccc4ncn(C5CCCC5)c(=O)c4c3)ccc2o1 [Compound 256]
< 5.00	< 5.00	< 5.00	> 7.00	NC(=O)[C@@H]1CCCN1c1cnc2ccc(-c3ccc4oc(N)nc4c3)cc2n1 [Compound 257]
> 5.00	< 5.00	< 5.00	> 6.00	NC(=O)[C@@H]1CCCN1C(=O)c1cnc2ccc(-c3ccc4oc(N)nc4c3)cn12 [Compound 259]
> 5.00	> 5.00	> 5.00	> 7.00	Nc1nc2cc(-c3ccc4ncc(C(=O)N5CCN(C6CC6)CC5)n4c3)ccc2o1 [Compound 263]
> 6.00	> 6.00	> 5.00	> 7.00	Nc1nc2cc(-c3ccc4ncc(C(=O)N5CC(N6CCOCC6)C5)n4c3)ccc2o1 [Compound 266]
> 6.00	> 5.00	> 5.00	> 7.00	C[C@H]1CN(C(=O)C2CN(c3cnc4ccc(-c5ccc6oc(N)nc6c5)cc4n3)C2)CCN1 [Compound 268]
< 5.00	> 5.00	> 5.00	> 6.00	Nc1nc2cc(-c3ccc4ncn(CCCN5CCCC5)c(=O)c4c3)ccc2o1 [Compound 271]
> 5.00	< 5.00	> 5.00	> 6.00	COCCn1cnc2ccc(-c3ccc4oc(N)nc4c3)cc2c1=O [Compound 272]
> 6.00	> 6.00	> 6.00	> 7.00	CN1CCN(CCNc2cnc3ccc(-c4ccc5oc(N)nc5c4)cc3n2)CC1 [Compound 275]
> 6.00	> 5.00	> 6.00	> 7.00	Nc1nc2cc(-c3ccc4ncc(N5CCN(C(=O)CN6CCCC6)CC5)nc4c3)ccc2o1 [Compound 278]

pIC50 [1]	pIC50 [2]	pIC50 [3]	pIC50 [4]	Compound
> 5.00	> 5.00	> 5.00	> 7.00	CCN(CC)CC(=O)N1CCN(c2cnc3ccc(-c4ccc5oc(N)nc5c4)cc3n2)CC1 [Compound 279]
< 5.00	< 5.00	< 5.00	> 5.00	CN1CCN(CCn2cnc3ccc(-c4ccc5oc(N)nc5c4)cc3c2=O)CC1 [Compound 280]
> 6.00	> 6.00	> 5.00	> 7.00	CC(C)N1CCN(C(=O)C2CN(c3cnc4ccc(-c5ccc6oc(N)nc6c5)cc4n3)C2)CC1 [Compound 285]
> 7.00	> 6.00	> 6.00	> 7.00	Nc1nc2cc(-c3ccc4ncc(N5CCN(C(=O)C6(N)CCC6)CC5)nc4c3)ccc2o1 [Compound 286]
> 6.00	> 6.00	> 5.00	> 7.00	Nc1nc2cc(-c3ccc4ncc(N5CC(C(=O)N6CCN(CC7CC7)CC6)C5)nc4c3)ccc2o1 [Compound 287]
> 5.00	> 6.00	> 6.00	> 6.00	Nc1nc2cc(-c3ccc4ncc(C(=O)NCCCN5CCOCC5)n4c3)ccc2o1 [Compound 288]
> 6.00	< 5.00	> 5.00	> 6.00	Nc1nc2cc(-c3ccc4ncn(CCN5CCOCC5)c(=O)c4c3)ccc2o1 [Compound 289]
< 5.00	< 5.00	< 5.00	> 6.00	Nc1nc2cc(-c3ccc4ncn(CCCN5CCOCC5)c(=O)c4c3)ccc2o1 [Compound 290]
< 5.00	< 5.00	< 5.00	> 6.00	CN1CCN(CCCn2cnc3ccc(-c4ccc5oc(N)nc5c4)cc3c2=O)CC1 [Compound 291]
< 5.00	< 5.00	< 5.00	> 5.00	CN(C)CCn1cnc2ccc(-c3ccc4oc(N)nc4c3)cc2c1=O [Compound 292]
> 6.00	> 7.00	> 6.00	> 7.00	Nc1nc2cc(-c3ccc4ncc(C(=O)NCCCN5CCCC5)n4c3)ccc2o1 [Compound 293]
> 6.00	> 6.00	> 6.00	> 6.00	CCN(CC)CCNC(=O)c1cnc2ccc(-c3ccc4oc(N)nc4c3)cn12 [Compound 295]
> 5.00	< 5.00	< 5.00	> 6.00	Cc1ccn(C2CCN(C(=O)c3cnc4ccc(-c5ccc6oc(N)nc6c5)cn34)CC2)n1 [Compound 297]
> 7.00	> 7.00	> 6.00	> 7.00	Nc1nc2cc(-c3ccc4ncc(N5CCN(C(=O)[C@H](N)CO)CC5)nc4c3)ccc2o1 [Compound 299]
< 5.00	< 5.00	> 5.00	> 5.00	Nc1nc2ccc(-c3ccc4nnc(-c5cccnc5)n4c3)cc2o1 [Compound 301]
> 5.00	> 7.00	> 5.00	> 6.00	CCN(CC)CCCNC(=O)c1cnc2ccc(-c3ccc4oc(N)nc4c3)cn12 [Compound 302]
< 5.00	< 5.00	< 5.00	> 5.00	Nc1nc2ccc(-c3ccc4nnc(C(=O)N5CCCC5)n4c3)cc2o1 [Compound 305]
< 5.00	< 5.00	> 6.00	> 6.00	C[C@H]1CN(c2cnc3ccc(-c4ccc5sc(N)nc5c4)cc3n2)CCN1 [Compound 307]
> 5.00	< 5.00	> 6.00	> 6.00	C[C@H]1CN(c2cnc3ccc(-c4ccc5nc(N)oc5c4)cc3n2)CCN1 [Compound 309]
< 5.00	< 5.00	< 5.00	< 5.00	C[C@H]1CN(c2cnc3ccc(-c4cccc5nc(N)oc45)cc3n2)CCN1 [Compound 310]
< 5.00	< 5.00	< 5.00	> 6.00	Cc1nc(NC(=O)N2CCC[C@H]2C(N)=O)sc1-c1ccc2oc(N)nc2c1 [Compound 311]

Compound	pIC50 [1]	pIC50 [2]	pIC50 [3]	pIC50 [4]
Nc1nc2cc(-c3ccc4ncc(N5CCN(C(=O)[C@H]6CCCN6)CC5)nc4c3)ccc2o1 [Compound 225]	> 7.00	> 7.00	> 7.00	> 7.00
COc1nc(-c2ccc3oc(N)nc3c2)cnc1N [Compound 238]	> 6.00	> 5.00	> 6.00	> 6.00
Nc1cn2cc(-c3ccc4oc(N)nc4c3)ccc2n1 [Compound 245]	> 6.00	< 5.00	> 5.00	> 6.00
CC(=O)Nc1nc2cc(-c3ccc4oc(N)nc4c3)ccc2s1 [Compound 250]	> 7.00	< 5.00	< 5.00	< 5.00
CC(=O)Nc1nc2cc(-c3ccc4nc(N)oc4c3)ccc2s1 [Compound 251]	> 7.00	> 7.00	> 7.00	> 7.00
Nc1nc2cc(-c3ccc4ncc(N5CC(C(=O)N6CCOCC6)C5)nc4c3)ccc2o1 [Compound 252]	> 5.00	> 5.00	> 5.00	< 5.00
CN1CCN(C(=O)C2CN(c3cnc4ccc(-c5ccc6oc(N)nc6c5)cc4n3)C2)CC1 [Compound 253]	> 5.00	> 5.00	> 5.00	< 5.00
Nc1nc2cc(-c3ccc4ncn(C5CC5)c(=O)c4c3)ccc2o1 [Compound 254]	> 6.00	< 5.00	< 5.00	> 6.00
